What was measured:
Jurkat [1] = experiment: Inhibition of calcium influx in jurkat (T cells).; assay type: functional, cell-based; conditions: Homo sapiens
Jurkat [2] = experiment: Inhibition of cellular proliferation in jurkat (T cells).; assay type: functional, cell-based; conditions: Homo sapiens
MDA-MB-361 [3] = experiment: Inhibition of calcium influx in MDA-361 (breast) tumor cells.; assay type: functional, cell-based; conditions: Homo sapiens
MDA-MB-361 [4] = experiment: Inhibition of cellular proliferation in MDA-361 (breast) tumor cells.; assay type: functional, cell-based; conditions: Homo sapiens
LNCaP [5] = experiment: (§1) Inhibition of calcium influx in LNCaP (prostate).; assay type: functional, cell-based; conditions: Homo sapiens, Prostate gland
LNCaP [6] = experiment: Inhibition of cellular proliferation in LNCaP (prostate).; assay type: functional, cell-based; conditions: Homo sapiens
LNCaP [7] = experiment: as §1; assay type: functional, cell-based, Homo sapiens, Prostate gland

IC50 (Jurkat [1]) | IC50 (Jurkat [2]) | IC50 (MDA-MB-361 [3]) | IC50 (MDA-MB-361 [4]) | IC50 (LNCaP [5]) | IC50 (LNCaP [6]) | IC50 (LNCaP [7]) | Compound
3 µM | 11 µM | 20 µM | 40 µM | 5 µM | 6 µM |  | COc1ccc(CCN2CCC[C@H]2COC(c2ccc(C)cc2)c2ccc(C)cc2)cc1
10 µM | 6 µM | 30 µM | 11 µM | 10 µM | 3 µM |  | Oc1ccc(CCN2CCC[C@H]2COC(c2ccccc2)c2ccc(Cl)cc2)cc1 (some centres undefined)
< 1 µM | 11 µM | 3 µM | 27 µM | 30 µM | 8 µM |  | Clc1ccc(C(OC[C@@H]2CCCN2CCc2ccccc2)c2ccccc2)cc1 (some centres undefined)
 | 6 µM | 10 µM | 10 µM | 4 µM | 4 µM |  | COc1ccc(CCN2CCC[C@H]2COC(c2ccccc2)c2ccc(Cl)cc2)cc1 (some centres undefined)
1 µM | 3.8 µM | 10 µM | 13 µM | 12 µM | 2.4 µM |  | COc1ccccc1CCN1CCC[C@H]1COC(c1ccccc1)c1ccc(Cl)cc1 (some centres undefined)
10 µM | 12 µM | 30 µM | 29 µM | 30 µM | 10 µM |  | COc1ccc(CCN2CCC[C@H]2COC(c2ccccc2)c2ccccc2)cc1
3 µM | 6 µM | 10 µM | 11 µM | 10 µM | 4 µM |  | COc1ccc(CCN2CCC[C@H]2COC(c2ccccc2)c2ccc(Cl)c(Cl)c2)cc1 (some centres undefined)
3 µM | 5 µM | 30 µM | 29 µM | 10 µM | 3.2 µM |  | COc1cccc(CCN2CCC[C@H]2COC(c2ccccc2)c2ccc(Cl)cc2)c1 (some centres undefined)
30 µM | 40 µM | 100 µM |  | 15 µM | 15 µM |  | COc1ccc(CCN2CCC[C@H]2COC(c2ccccc2)c2ccc(Br)cc2)cc1 (some centres undefined)
2 µM | 10 µM | 30 µM | 30 µM |  | 7.7 µM | No effect | COc1ccc(CN2CCC[C@H]2COC(c2ccccc2)c2ccc(Cl)cc2)cc1 (some centres undefined)
20 µM | 8.3 µM | 30 µM | 10 µM | 15 µM | 5 µM |  | COc1ccc(CCN2CCC(COC(c3ccccc3)c3ccccc3)CC2)cc1
7 µM | 8.4 µM | 25 µM | 10.4 µM | 5 µM | 3.3 µM |  | COc1ccc(CCN2CCC(COC(c3ccccc3)c3ccc(Cl)cc3)CC2)cc1 (centres undefined)
25 µM | 18 µM | 100 µM | 15 µM | 10 µM | 14 µM |  | COc1ccc(CCN2CCC[C@H]2COCc2ccc(Cl)cc2)cc1
1 µM | 4 µM | 10 µM | 11 µM | 30 µM | 3.5 µM |  | COc1ccc(CCCN2CCC[C@H]2COC(c2ccccc2)c2ccc(Cl)cc2)cc1 (some centres undefined)
3 µM | 11 µM | 30 µM | 25 µM | 10 µM | 5 µM |  | COc1ccc(CCN2CCCCC2COC(c2ccccc2)c2ccc(Cl)cc2)cc1 (centres undefined)
10 µM | 8.8 µM | 30 µM | 13 µM | 12 µM | 6.8 µM |  | COc1ccc(CCN2CCCC(COC(c3ccccc3)c3ccc(Cl)cc3)C2)cc1 (centres undefined)
15 µM | 9 µM | 30 µM | 22 µM | 7 µM | 4 µM |  | COc1ccc(CCN2CCCCC2COC(c2ccc(Cl)cc2)c2ccc(Cl)cc2)cc1 (centres undefined)
5 µM | 3.6 µM | 25 µM | 11 µM | 4 µM | 3 µM |  | COc1ccc(CCN2CCC[C@H]2COC(c2ccc(Cl)cc2)c2ccc(Cl)cc2)cc1
30 µM | 60 µM | 100 µM | 47 µM | 50 µM | 17 µM |  | CN1CCC[C@H]1COC(c1ccccc1)c1ccc(Cl)cc1 (some centres undefined)
10 µM | 11.1 µM | 20 µM | 7.1 µM | 10 µM | 3.4 µM |  | COc1ccc(CCN2CCC(COC(c3ccc(Cl)cc3)c3ccc(Cl)cc3)CC2)cc1
8 µM | 13.8 µM | 30 µM | 17.7 µM | 15 µM | 9.2 µM |  | COc1ccc(CCN2CCCC(COC(c3ccccc3)c3ccccc3)C2)cc1 (centres undefined)
10 µM | 9.6 µM | 30 µM | 13 µM | 5 µM | 5 µM |  | COc1ccc(CCN2CCCC(COC(c3ccc(Cl)cc3)c3ccc(Cl)cc3)C2)cc1 (centres undefined)
3 µM | 5 µM | 30 µM | 14 µM | 10 µM | 4 µM |  | COc1ccc(CCN2CCC[C@H]2COC(c2ccc(F)cc2)c2ccc(F)cc2)cc1
15 µM | 13 µM | 20 µM | 15 µM | 10 µM | 5.1 µM |  | COc1ccc(CCN2CCC[C@H]2COC(c2ccc(OC)cc2)c2ccc(OC)cc2)cc1
100 µM | 108 µM | 20 µM | 83 µM | 100 µM | 33 µM |  | COc1ccc(CCN2CCC[C@H]2COCc2ccccc2)cc1
3 µM | 13 µM | 20 µM | 14 µM | 10 µM | 2 µM |  | COc1ccc(CCN2CCC[C@H]2COC(c2ccccc2)c2ccc(F)cc2)cc1 (some centres undefined)

From ChEMBL document CHEMBL1146797, “Design, synthesis, and biological evaluation of novel T-Type calcium channel antagonists” (Bioorg Med Chem Lett, 2004)
